Values after ≈ are worked out from the molar mass of the structure shown.
Test: Kinetic solubility assay
Assay type: physicochemical
Conditions: phosphate buffer, pH 7.4, aqueous buffer, kinetic from dmso stock

In the case of CCCSc1ccc2nc(NC(=O)OC)[nH]c2c1 [Albendazole, albendazole], the solubility kinetic at 6 h is reported as less than 1 µg/mL.
With Nc1ccc(/N=N/c2ccccc2)c(N)n1 [phenazolpyridine] the solubility kinetic at 6 h was 27.7 ± 4.49 µg/mL (≈ 130 µM).

Reference: paper PMC8274818 (Bioorganic & medicinal chemistry, 2019)
